Holding throughout (assay type): cell-based
In test [1] the test system is aCD3/aCD28-stimulated human PBMCs. Briefly: Cytokine production in aCD3/aCD28 stimulated human PBMCs. To be noted: PBMC, 18 h. A digest of the protocol: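 Compound effects measured in buffy-coat PBMCs activated 18 h at 37° C by 1 μg/mL each of soluble anti-CD3 (OKT3) and anti-CD28 (28.2), 1e6 cells/mL. Cytokines in harvested supernatants read by MSD or HTRF.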
In the next test the test system is CD4 T cells. The experiment in a line: CD69 expression on aCD3/aCD28 stimulated isolated human CD4 T cells (flow cytometry). To be noted: 24 h after TCR stimulation, read-out: Activity Class CD69 (CD4). As for the experimental part: (§1) Isolated T cells were plated in Xvivo medium at 1.5*10 ^5 cells per in 96 well culture plates and TCR-stimulated with anti-CD3/28 mAbs in the presence of compound as indicated. Cytokine production was determined at 24 h or 48 h following TCR stimulation in cell culture supernatants using commercially available ELISA kits (BD and eBioscience) as recommended by the manufacturer. T cell proliferation and CD25 expression (CD25-PC5 reagent purchased from Beckman Coulter) was determined by flow cytometry (Beckman-Coulter FC500) and analysed with Kaluza Software. For measurement of CD69 expression, isolated CD4 and CD8 T cells were plated in Xvivo medium at […] per in 96 well culture plates and TCR-stimulated with anti-CD3/28 mAbs in the presence of compound. CD69 expression was determined at 24 h following TCR stimulation by flow cytometry (CD4eF450, CD8APCeF780 and CD69-PC7 reagent purchased from eBioscience) and analysed with Kaluza Software.
(§2) For measurement of CD69 expression, isolated CD4 and CD8 T cells were plated in Xvivo medium at 80000 cells per in 96 well culture plates and TCR-stimulated with anti-CD3/28 mAbs in the presence of compound. CD69 expression was determined at 24 h following TCR stimulation by flow cytometry (CD4eF450, CD8APCeF780 and CD69-PC7 reagent purchased from eBioscience) and analysed with Kaluza Software.

The subject of another test is CD8 T cells. The experiment in a line: CD69 expression on aCD3/aCD28 stimulated isolated human CD8 T cells (flow cytometry). To be noted: T-cell, 24 h after TCR stimulation, read-out: Activity Class CD69 (CD8). The procedure:
as §1, §2

Where [2] appears, read: enhancement of IFN-γ production, read-out: Activity Class IFN-γ.
[3] abbreviates: enhancement of IL-2 production, read-out: Activity Class IL-2.

Where a name gives a salt, the structure may show the parent alone. Read-outs that look alike come from different tables or passages of the source.

Turning to `N[C@H]1CS(=O)(=O)c2cc(F)c(C(=O)NCC3CCOCC3)cc2N(Cc2ccc(F)cc2)C1=O` [Example 139, (3R)-3-amino-8-fluoro-5-[(4-fluorophenyl)methyl]-N-[(oxan-4-yl)methyl]-1,1,4-trioxo-2,3,4,5-tetrahydro-1λ^6,5-benzothiazepine-7-carboxamide hydrochloride], the EC50 is 1580 to 5010 nM in test [1] (setting [2]), 1580 to 5010 nM in test [1] (setting [3]), 1580 to 5010 nM with CD4 T cells and above 5010 nM in the test with CD8 T cells.

Consider `N[C@H]1CS(=O)(=O)c2cc(F)c(C(=O)NC3CCC(F)(F)CC3)cc2N(Cc2ccc(Cl)cc2)C1=O` [Example 126, (3R)-3-amino-5-[(4-chlorophenyl)methyl]-N-(4,4-difluorocyclohexyl)-8-fluoro-1,1,4-trioxo-2,3,4,5-tetrahydro-1λ^6,5-benzothiazepine-7-carboxamide hydrochloride], for which the EC50 (in test [1] (setting [2]); in test [1] (setting [3]); in the test on CD4 T cells; in the test with CD8 T cells) was below 1580 nM in each case.

Take `N[C@H]1CS(=O)(=O)c2cc(Cl)c(C(=O)N[C@@H]3CC3(F)F)cc2N(Cc2ccc(Cl)cc2)C1=O` [Example 175, (3R)-3-amino-8-chloro-5-[(4-chlorophenyl)methyl]-N-[(1R)-2,2-difluorocyclopropyl]-1,1,4-trioxo-2,3,4,5-tetrahydro-1λ^6,5-benzothiazepine-7-carboxamide]: the EC50 is 1580 to 5010 nM in test [1] (setting [2]), above 5010 nM in test [1] (setting [3]), below 1580 nM with CD4 T cells and 1580 to 5010 nM in the test on CD8 T cells.

For the compound `N[C@H]1C[S@@+]([O-])c2cc(F)c(C(=O)NCCCC(F)(F)F)cc2N(Cc2ccc(Cl)cc2)C1=O` (single isomer, unassigned) [Example 123, hydrochloride], the EC50 is below 1580 nM in test [1] (setting [2]), 1580 to 5010 nM in test [1] (setting [3]), above 5010 nM in the test on CD4 T cells and above 5010 nM with CD8 T cells.

As for `N[C@H]1CS(=O)(=O)c2ccc(C(=O)NC3CC3(F)F)cc2N(Cc2ccc(Br)cc2)C1=O` (stereo partly drawn) [Example 180, (3R)-3-amino-5-[(4-bromophenyl)methyl]-N-(2,2-difluorocyclopropyl)-1,1,4-trioxo-2,3,4,5-tetrahydro-1λ^6,5-benzothiazepine-7-carboxamide], the EC50 (in test [1] (setting [2]); in test [1] (setting [3]); in the test on CD4 T cells; with CD8 T cells) was below 1580 nM throughout.

As to `N[C@H]1CS(=O)(=O)c2cc(F)c(C(=O)NC3CC(F)(F)C3)cc2N(Cc2ccc(F)cc2)C1=O` [Example 140, (3R)-3-amino-N-(3,3-difluorocyclobutyl)-8-fluoro-5-[(4-fluorophenyl)methyl]-1,1,4-trioxo-2,3,4,5-tetrahydro-1λ^6,5-benzothiazepine-7-carboxamide hydrochloride], the EC50 in test [1] (setting [2]) was 1580 to 5010 nM; in test [1] (setting [3]) it was 1580 to 5010 nM; with CD4 T cells, 1580 to 5010 nM; with CD8 T cells, above 5010 nM.

On to `C#CCOc1ccc(CNC(=O)c2cc3c(cc2F)S(=O)(=O)C[C@H](N)C(=O)N3Cc2ccc(Cl)cc2)cc1` [Example 178, (3R)-3-amino-5-[(4-chlorophenyl)methyl]-8-fluoro-1,1,4-trioxo-N-{[4-(prop-2-yn-1-yloxy)phenyl]methyl}-2,3,4,5-tetrahydro-1λ^6,5-benzothiazepine-7-carboxamide], for which the EC50 (in test [1] (setting [2]); in test [1] (setting [3]); with CD4 T cells; in the test on CD8 T cells) was below 1580 nM in each case.

For `N[C@H]1CS(=O)(=O)c2ccc(C(=O)NCC3(F)CCOCC3)cc2N(Cc2ccc(Cl)cc2)C1=O` [Example 165, (3R)-3-amino-5-[(4-chlorophenyl)methyl]-N-[(4-fluorooxan-4-yl)methyl]-1,1,4-trioxo-2,3,4,5-tetrahydro-1λ^6,5-benzothiazepine-7-carboxamide], the EC50 was below 1580 nM in test [1] (setting [2]), 1580 to 5010 nM in test [1] (setting [3]), below 1580 nM with CD4 T cells and below 1580 nM in the test on CD8 T cells.

On to `N#Cc1ccc(CN2C(=O)[C@@H](N)CS(=O)(=O)c3cc(F)c(C(=O)NC4CC4(F)F)cc32)cc1` (stereo partly drawn) [Example 124, (3R)-3-amino-5-[(4-cyanophenyl)methyl]-N-(2,2-difluorocyclopropyl)-8-fluoro-1,1,4-trioxo-2,3,4,5-tetrahydro-1λ^6,5-benzothiazepine-7-carboxamide hydrochloride], for which the EC50 in test [1] (setting [2]) is 1580 to 5010 nM; in test [1] (setting [3]), above 5010 nM; in the test with CD4 T cells, above 5010 nM; with CD8 T cells, above 5010 nM.

As for `COc1ccc(CNC(=O)c2ccc3c(c2)N(Cc2ccc(OC)cc2)C(=O)[C@@H](N)CS3(=O)=O)cc1` [Example 151, (3R)-3-amino-N,5-bis[(4-methoxyphenyl)methyl]-1,1,4-trioxo-2,3,4,5-tetrahydro-1λ^6,5-benzothiazepine-7-carboxamide], the EC50 is 1580 to 5010 nM in test [1] (setting [2]), 1580 to 5010 nM in test [1] (setting [3]), 1580 to 5010 nM in the test with CD4 T cells and below 1580 nM in the test with CD8 T cells.

In the case of `N[C@H]1CSc2cc(F)c(C(=O)NCc3ccccc3)cc2N(Cc2ccc(F)cc2)C1=O` [Example 132, (3R)-3-amino-N-benzyl-8-fluoro-5-[(4-fluorophenyl)methyl]-4-oxo-2,3,4,5-tetrahydro-1,5-benzothiazepine-7-carboxamide hydrochloride], the EC50 in test [1] (setting [2]) is 1580 to 5010 nM; in test [1] (setting [3]), above 5010 nM; with CD4 T cells, above 5010 nM; in the test on CD8 T cells, above 5010 nM.

`N[C@H]1CS(=O)(=O)c2cc(F)c(C(=O)NC3CC3(F)F)cc2N(Cc2ccc(F)cc2)C1=O` (stereo partly drawn) [Example 130, (3R)-3-amino-N-(2,2-difluorocyclopropyl)-8-fluoro-5-[(4-fluorophenyl)methyl]-1,1,4-trioxo-2,3,4,5-tetrahydro-1λ^6,5-benzothiazepine-7-carboxamide hydrochloride]: the EC50 in test [1] (setting [2]) is 1580 to 5010 nM; in test [1] (setting [3]), above 5010 nM; in the test with CD4 T cells, above 5010 nM; in the test on CD8 T cells it was 1580 to 5010 nM.

As for `N[C@H]1CS(=O)(=O)c2cc(F)c(C(=O)N[C@H]3CCC(F)(F)C3)cc2N(Cc2ccc(Cl)cc2)C1=O` [Example 146, (3R)-3-amino-5-[(4-chlorophenyl)methyl]-N-[(1S)-3,3-difluorocyclopentyl]-8-fluoro-1,1,4-trioxo-2,3,4,5-tetrahydro-1λ^6,5-benzothiazepine-7-carboxamide], the EC50 in test [1] (setting [2]) was below 1580 nM; in test [1] (setting [3]), below 1580 nM; in the test with CD4 T cells it was 1580 to 5010 nM; in the test on CD8 T cells, 1580 to 5010 nM.

Regarding `N[C@H]1CS(=O)(=O)c2cc(F)c(C(=O)NCCC3CCOCC3)cc2N(Cc2ccc(Cl)cc2)C1=O` [Example 135, (3R)-3-amino-5-[(4-chlorophenyl)methyl]-8-fluoro-N-[2-(oxan-4-yl)ethyl]-1,1,4-trioxo-2,3,4,5-tetrahydro-1λ^6,5-benzothiazepine-7-carboxamide hydrochloride], the EC50 in test [1] (setting [2]) was below 1580 nM; in test [1] (setting [3]) it was 1580 to 5010 nM; in the test on CD4 T cells, 1580 to 5010 nM; in the test on CD8 T cells it was 1580 to 5010 nM.

`N[C@H]1CS(=O)(=O)c2ccc(C(=O)N[C@@H]3CC3(F)F)cc2N(Cc2ccc(C3CC3)cc2)C1=O` [Example 159, (3R)-3-amino-5-[(4-cyclopropylphenyl)methyl]-N-[(1R)-2,2-difluorocyclopropyl]-1,1,4-trioxo-2,3,4,5-tetrahydro-1λ^6,5-benzothiazepine-7-carboxamide]: the EC50 was 1580 to 5010 nM in test [1] (setting [2]), 1580 to 5010 nM in test [1] (setting [3]), below 1580 nM with CD4 T cells and below 1580 nM in the test on CD8 T cells.

For `COc1ccc(CNC(=O)c2cc3c(cc2F)S(=O)(=O)C[C@H](N)C(=O)N3Cc2ccc(Cl)cc2)cc1` [Example 137, (3R)-3-amino-5-[(4-chlorophenyl)methyl]-8-fluoro-N-[(4-methoxyphenyl)methyl]-1,1,4-trioxo-2,3,4,5-tetrahydro-1λ^6,5-benzothiazepine-7-carboxamide hydrochloride], the EC50 (in test [1] (setting [2]); in test [1] (setting [3]); with CD4 T cells; in the test on CD8 T cells) was below 1580 nM throughout.

Consider `N[C@H]1CS(=O)(=O)c2ccc(C(=O)NC3CC(F)(F)C3)cc2N(Cc2ccc(Cl)cc2)C1=O` [Example 145, (3R)-3-amino-5-[(4-chlorophenyl)methyl]-N-(3,3-difluorocyclobutyl)-1,1,4-trioxo-2,3,4,5-tetrahydro-1λ^6,5-benzothiazepine-7-carboxamide], for which the EC50 in test [1] (setting [2]) is 1580 to 5010 nM; in test [1] (setting [3]), 1580 to 5010 nM; with CD4 T cells, below 1580 nM; in the test on CD8 T cells, below 1580 nM.

Turning to `COc1ccc(CNC(=O)c2ccc3c(c2)N(Cc2ccccc2)C(=O)[C@@H](N)CS3(=O)=O)cc1` [Example 152, (3R)-3-amino-5-benzyl-N-[(4-methoxyphenyl)methyl]-1,1,4-trioxo-2,3,4,5-tetrahydro-1λ^6,5-benzothiazepine-7-carboxamide], the EC50 in test [1] (setting [2]) is 1580 to 5010 nM; in test [1] (setting [3]), above 5010 nM; in the test on CD4 T cells, 1580 to 5010 nM; with CD8 T cells, 1580 to 5010 nM.
